Data: patent US9365851B2, “Spalt-like transcription factor 4 (SALL4) and uses thereof” (National University of Singapore, priority 2011, dated 2016)

Columns and labels:
HuH-7 and SNU-398 cells = test: In vivo tumorigenicity of shRNA-transduced HCC cells in NOD/SCID mice
Protocol: 4- to 8-week-old NOD/SIC mice were used. Animal work was done at the Childrens Hospital Boston (CHB) with approval from IACUC. 10×10^6 SNU-398 or 6×10^6 HuH-7 cells infected with viruses expressing scrambled shRNA or E5 shRNA specific for SALL4 (total 300 μL of cell suspension and matrigel in 1:1 ratio) were injected subcutaneously (s.c.) into NOD/SCID mice on the right flank. After injection, mice were examined and tumor volumes were measured at various time points. Tumor volume=π/6×larger diameter×(smaller diameter)^2. Tumor samples were processed for routine histology examination.
A decrease in tumorigenicity in SALL4-knockdown HCC cells was anticipated and an in vivo transplantation assay was carried out to confirm this hypothesis. HuH-7, another HCC cell line with considerably high endogenous SALL4 expression, and SNU-398 cells were transduced with lentivirus expressing either E5 shRNA or control scrambled shRNA and transplanted subcutaneously into right flank of NOD/SCID mice.
To examine if SALL4 has a role in maintaining tumorigenicity of HCC cells, in vivo xenotransplantation assays were carried out. HuH-7 and SNU-398 cells were transduced with lentviruses expressing either shSALL4 1 or Scr shRNA 1 and transplanted subcutaneously into the flanks of NOD/SCID mice.

HDAC1 and HDAC2 = test: Anti-FITC pull-down from HL60 cell lysates, immunoblot for HDAC1 and HDAC2; format: binding, human
Protocol: FIG. 18: SALL4 peptide interacts with various components of the NuRD complex. Cell lysates from HL60 cells were mixed with wild type (wt) or mutant (mut) peptides end-labeled with FITC and immunoprecipitated with anti-FITC antibody (Santa Cruz). The complexes were pulled down with Dynabeads Antibody Coupling Kit (Invitrogen) according to the manufacturer's instructions. The samples were immunoblotted and probed for HDAC1 and HDAC2. […] The specificity was tested with mouse IgG instead of anti-FITC antibody.

SNU-398 = test: Cellular uptake of FITC-labeled peptide; format: cell-based, human
Protocol: Cells were grown typically in 6 well plates (35 mm dish) to 50-70% confluence. Usually the transfect ion efficiency is somehow cell type specific. 2 mM peptide was diluted 4 times in PBS (2 ul+6 ul) (For FITC peptidedo not dilute the 2 mM stock). For each transfection reaction tube with 100 ul PBS+1 ul diluted peptide was set up. Chariot reagent was diluted 1:10 in ddH2O and for each transfection a 94 ul H2O tube+6 ul diluted Chariot was prepared (No master mix for more than 4 transfections). The 2 tubes were carefully mixed by pipetting up and down and incubated 30 min. at room temperature. Medium was aspirated from the dish (well) and cells were overlay with the mix. 400 ul serum free medium was added and cells were incubated further for 1 h 37 C (cell incubator). 500 ul complete medium (with 10% serum) was finally added. If cells are not very sensitive to serum starvation (cancer cell lines) 5% serum could be used.
Fluorescent and Confocal microscopy was performed on cells treated with FITC labeled peptides with or without of transfection reagent depending on the cell type. Cells were mounted on cover slips using mounting media with DAPI (Invitrogen) and in some cases cytoskeleton dye (Invitrogen).
In order to evaluate their cellular uptake and localization, the N terminus of these peptides was labeled with fluorescein isothiocyanate (FITC). Despite the net positive charge of these peptides, their uptake by the cells is cell-type specific. Some cell lines such as HL-60 (an AML cell line) allowed the peptide to enter the cells without any modification or carrier, and some cell lines were not penetrable at all. In order to achieve a similar level of peptide delivery in most cell types, a Chariot Transfection Reagent (Active Motif) was used as a peptide carrier, as directed from the manufacturer. All cell types used in the study described herein were subjected to individual evaluation of the percentage of the cells in which the peptide was delivered as well as the duration of time during which they sustained the labeled peptide in the cells. After Chariot treatment, confocal microscopy studies confirmed uptake of these peptides throughout the cell, including nuclei (as evidenced by DAPI overlay, FIG. 1B).
Next tested was the cellular uptake and localization of these peptides in various types of cells using FITC-labeled wild type or scrambled peptides. Despite the net positive charge of these peptides, their penetration into cells is cell type-specific. Some cell lines, such as HL-60 (an AML cell line), allowed peptide entry without any modification or facilitator, while others such as SNU-398 were not penetrable at all. […] The overall success rate of peptide uptake by the cells was above 95% with Pep-1, as evaluated by flow cytometry (FIG. 9A). […]

AN3CA cells = test: Cell viability assay (MTT/MTS); format: cell-based, human; settings: AN3CA (high SALL4, no PTEN)
Protocol: Cell viability assay (MTT) (Invitrogen) was performed according to the manufacturer's instructions. Briefly—10000 cells were seeded in 100 ul medium in 96 well plates. The next day cells were treated as indicated on the figures. At the designated time after the treatment 20 ul of 5 mg/ml MTT solution was added to each well. After 3.5 h incubation at 37 C the medium was removed and the reaction was terminated with a solution of 4 mM HCl, 0.1% Nondet P-40 (NP40) all in isopropanol in dark on orbital shaker for […]. at room temperature. The absorbance was read at 590 nm with a reference filter of 620 nm in Spectromax M3 (ABI) spectrophotometer.
Multiple leukemic and solid tumor cancer cell lines with high or low/no SALL4 expression (FIG. 10A) were chosen to test the biological effect(s) of the wild type peptide. Wild type or scrambled peptide was delivered into tumor cells at various concentrations, and their effects on cells were evaluated 72 hours post-treatment by the MTS cell viability assay. […] The effect of wild type peptide is SALL4-specific, as it had no effect on KBM5, an AML cell line with undetectable endogenous SALL4 expression. We were surprised to see that the wild type peptide had no effect on a high SALL4-expressing endometrioid cancer cell line, AN3CA. […] Therefore, expression of PTEN was evaluated in AN3CA cells along with other cell lines. […]

| Substance | mice with tumor formation (HuH-7 and SNU-398 cells; HuH-7, subcutaneous, n=3) | ability of cells to propagate tumors (HuH-7 and SNU-398 cells; HuH-7 and SNU-398) | survival of mice (HuH-7 and SNU-398 cells; HuH-7 and SNU-398, Kaplan-Meier) | binding to HDAC1 and HDAC2 (HDAC1 and HDAC2) | peptide uptake (cells with peptide) (SNU-398; SNU-398, no carrier) [%] | peptide uptake (cells with peptide) (SNU-398; SNU-398, with Chariot) [%] | cells showing FITC-labeled peptide uptake (SNU-398; SNU-398, with Pep-1 carrier, flow cytometry) | cell viability (AN3CA cells) |
| --- | --- | --- | --- | --- | --- | --- | --- | --- |
| CTATTTAGCCAAAGGCAAA (short hairpin RNA, chemistry and delivery not given here, further chemistry not given here) [E5 shRNA] | one out of the three | greatly reduced the ability of these cells to propagate tumors | significant survival advantage | – | – | – | – | – |
| H-MSRRKQAKPQHI-OH [wt peptide, MSRRKQAKPQHI] | – | – | – | several folds higher activity than the mutant | 0 | 40 | Over 90% | had no effect |
